Laboratory results as given in PMC10977697 (PLOS ONE, 2024).
Read-outs that look alike come from different tables or passages of the source. Where a SMILES comes first, the peptide text is derived from it. Bridges are numbered along the chain shown (N, C = ends). Where no end group is shown, it is not given here.

Assays:
HtrA1 FL = biological target: T1, HtrA1 FL (Homo sapiens, UniProt Q92743); assay type: binding; details: read-out: Kd(μM) SPR
T1 construct: HtrA1 (Q23-P480, 5654, Tni Baculovirus); made in house; host or cells: Trichoplusia ni (Tni) cells, baculovirus
T1 sequence (Q92743 23-480): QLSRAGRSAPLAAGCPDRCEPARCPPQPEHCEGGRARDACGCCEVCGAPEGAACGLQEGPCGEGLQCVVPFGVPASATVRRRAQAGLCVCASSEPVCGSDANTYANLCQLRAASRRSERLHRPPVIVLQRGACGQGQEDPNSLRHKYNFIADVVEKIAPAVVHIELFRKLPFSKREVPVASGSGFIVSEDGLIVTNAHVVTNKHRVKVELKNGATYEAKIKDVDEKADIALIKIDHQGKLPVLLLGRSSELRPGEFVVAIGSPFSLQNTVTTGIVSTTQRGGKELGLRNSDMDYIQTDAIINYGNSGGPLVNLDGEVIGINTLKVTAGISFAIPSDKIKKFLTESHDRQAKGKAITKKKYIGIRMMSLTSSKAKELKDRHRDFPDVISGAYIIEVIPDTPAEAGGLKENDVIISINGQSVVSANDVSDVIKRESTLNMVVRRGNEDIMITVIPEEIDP

HtrA1 = assay type: binding, human; details: ratio of signal for target protein over BSA background
Notch2Long = assay: Spot phage ELISA, Notch2Long; assay type: binding, human; details: for ELISA: spot phage ELISA signal
Her3-Fc = biological target: T2, Her3-Fc (Homo sapiens, UniProt P21860); assay: Spot phage ELISA, Her3-Fc; assay type: binding; details: for S/N: ratio of signal for target protein over BSA background; for ELISA: spot phage ELISA signal, DCP displayed on M13 p8
T2 construct: purchased R&D 348-RB
T2 sequence (P21860 20-643 limits assumed): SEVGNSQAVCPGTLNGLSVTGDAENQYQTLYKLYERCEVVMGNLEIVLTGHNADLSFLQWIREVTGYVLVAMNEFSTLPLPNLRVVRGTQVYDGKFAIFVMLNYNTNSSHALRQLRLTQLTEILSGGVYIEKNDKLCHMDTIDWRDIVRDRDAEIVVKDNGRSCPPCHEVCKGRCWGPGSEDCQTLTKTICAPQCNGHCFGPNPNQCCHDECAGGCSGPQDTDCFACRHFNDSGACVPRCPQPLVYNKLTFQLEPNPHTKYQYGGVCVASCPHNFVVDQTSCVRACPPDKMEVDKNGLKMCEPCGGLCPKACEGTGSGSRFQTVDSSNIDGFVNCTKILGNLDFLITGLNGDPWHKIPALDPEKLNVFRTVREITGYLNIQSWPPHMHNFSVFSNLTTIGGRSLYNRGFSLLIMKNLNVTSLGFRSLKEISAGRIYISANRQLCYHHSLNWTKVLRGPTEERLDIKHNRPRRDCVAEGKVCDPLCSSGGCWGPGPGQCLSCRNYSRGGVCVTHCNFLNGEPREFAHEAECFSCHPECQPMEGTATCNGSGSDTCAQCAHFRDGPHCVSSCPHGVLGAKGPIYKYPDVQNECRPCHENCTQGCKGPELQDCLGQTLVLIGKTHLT

HGFA = assay: Spot phage ELISA, HGFA; assay type: binding, human; details: for S/N: ratio of signal for target protein over BSA background, S/N > 2 positive; for ELISA: spot phage ELISA signal, DCP displayed on M13 p8, phage supernatant 1:3 in PBT, anti-M13-HRP, TMB
R-spondin = assay: Spot phage ELISA, R-spondin; assay type: binding, human; details: for S/N: ratio of signal for target protein over BSA background; for ELISA: spot phage ELISA signal, DCP displayed on M13 p8
trypsin = assay: Phage ELISA of displayed DCPs on immobilized trypsin; details: DCP displayed on M13 p3 or p8, phage ELISA on trypsin-coated plates (Fig 1)
Procedure: The DCPs, incorporating an N-terminal gD-tag for quantification of display levels, were fused at the C-terminal to the major M13 coat protein p8 or the C-terminal domain of minor coat protein p3 (Fig 1A).
The display level was analyzed using phage ELISA described previously [47].

CD28-Fc = assay: Spot phage ELISA, CD28-Fc; assay type: binding

## CC[C@H](C)[C@@H]1NC(=O)[C@H](Cc2ccccc2)NC(=O)[C@H](Cc2ccc(O)cc2)NC(=O)[C@H](C(C)C)NC(=O)[C@H](CCSC)NC(=O)[C@H](C(C)C)NC(=O)[C@@H]2CSSC[C@H](NC(=O)[C@H](CC(=O)O)NC(=O)[C@H](Cc3ccccc3)NC(=O)[C@H](C)N)C(=O)N[C@@H](CC(C)C)C(=O)NCC(=O)N[C@@H](CCC(N)=O)C(=O)N[C@H]3CSSC[C@H](NC(=O)[C@H](Cc4ccc(O)cc4)NC(=O)[C@@H]4CCCN4C(=O)[C@H](CCCCN)NC(=O)[C@H]([C@@H](C)O)NC(=O)[C@H](CCSC)NC(=O)[C@H](Cc4c[nH]cn4)NC1=O)C(=O)N[C@@H](CC(N)=O)C(=O)N[C@@H](CO)C(=O)N[C@@H](CO)C(=O)N[C@H](C(=O)N[C@H](C(=O)N[C@@H](CCCNC(=N)N)C(=O)O)[C@@H](C)O)CSSC[C@H](NC(=O)[C@H](CCCNC(=N)N)NC(=O)CNC3=O)C(=O)N[C@@H](CC(=O)O)C(=O)N[C@@H](Cc1ccccc1)C(=O)N[C@@H](Cc1c[nH]cn1)C(=O)N[C@@H](CCCCN)C(=O)N[C@@H](CC(C)C)C(=O)N[C@@H](CCC(N)=O)C(=O)N2 [HtrA1_AVR61] (HELM PEPTIDE1{A.F.D.C.L.G.Q.C.G.R.C.D.F.H.K.L.Q.C.V.M.V.Y.F.I.H.M.T.K.P.Y.C.N.S.S.C.T.R}$PEPTIDE1,PEPTIDE1,4:R3-18:R3|PEPTIDE1,PEPTIDE1,8:R3-31:R3|PEPTIDE1,PEPTIDE1,11:R3-35:R3$$$V2.0; N-terminus and C-terminus assumed)
HtrA1 FL; Biacore S200, 25°C, biotinylated HtrA1 FL on chip SA, 10 mM HEPES (8.0), 200mM NaCl, 0.25% CHAPS, 5% DMSO, steady state fitting, n/d = no binding
  Kd: > 20 µM
HtrA1
  S/N: 24.4

## CC[C@H](C)[C@@H]1NC(=O)[C@@H]2CCCN2C(=O)[C@H](CCC(=O)O)NC(=O)[C@@H]2CSSC[C@@H]3NC(=O)[C@H](Cc4c[nH]cn4)NC(=O)[C@H](Cc4c[nH]c5ccccc45)NC(=O)[C@H](CC(C)C)NC(=O)[C@H]([C@@H](C)O)NC(=O)[C@H](Cc4c[nH]c5ccccc45)NC(=O)CNC(=O)[C@@H](NC(=O)CN)CSSC[C@H](NC(=O)CNC(=O)[C@H](C)NC(=O)[C@H](CC(C)C)NC(=O)[C@H](CSSC[C@@H](C(=O)NCC(=O)O)NC(=O)[C@H](Cc4c[nH]c5ccccc45)NC(=O)[C@H](Cc4c[nH]c5ccccc45)NC1=O)NC(=O)[C@H](CC(=O)O)NC(=O)[C@H](CO)NC(=O)[C@H](CC(=O)O)NC(=O)[C@H](CCC(N)=O)NC(=O)[C@H](CCCCN)NC3=O)C(=O)N[C@@H](C(C)C)C(=O)N2 [N2L-EET-03] (HELM PEPTIDE1{G.C.G.W.T.L.W.H.C.K.Q.D.S.D.C.L.A.G.C.V.C.E.P.I.W.W.C.G}$PEPTIDE1,PEPTIDE1,2:R3-19:R3|PEPTIDE1,PEPTIDE1,9:R3-21:R3|PEPTIDE1,PEPTIDE1,15:R3-27:R3$$$V2.0; N-terminus and C-terminus assumed)
Notch2Long; Table 3, affinity maturation clones, signal over BSA background
  s/n ratio: 3.1
Notch2Long; Table 3, affinity maturation clones, display (p8 or p3) not given per clone
  ELISA: 0.4
Notch2Long; initial hits, ratio of signal for target protein over BSA background
  S/N: 3.1
Notch2Long; initial hits, DCP displayed on M13 p8
  ELISA: 0.35

## AFDCLGQCVPYVLSPYCNSSCTR [Her3-Fc AVR9 6]
Her3-Fc
  S/N: 24.2
  ELISA: 1.56

## GCAESQHWWLWGCKQDSDCLAGCVCGPNGFCG (also: bicyclic or more (positions not given here)) [HGFA EET I-II 31]
HGFA
  S/N: 22.4
  ELISA: 1.95

## GCALSIHWWLWPCKQDSDCLAGCVCGPNGFCG (also: bicyclic or more (positions not given here)) [HGFA EET I-II 20]
HGFA
  S/N: 13.5
  ELISA: 1.93

## GCDLDLDWIWHECKQDSDCLAGCVCHQGNFCG (also: bicyclic or more (positions not given here)) [Her3-Fc EET I-II 9]
Her3-Fc
  S/N: 25.7
  ELISA: 1.44

## GCDPWIWQEWGVCKQDSDCLAGCVCGPNGFCG (also: bicyclic or more (positions not given here)) [R-spondin EETI-II 47]
R-spondin
  S/N: 13.7
  ELISA: 1.06

## GCEWDWWFDQWICKQDSDCLAGCVCGPNGFCG (also: bicyclic or more (positions not given here)) [HGFA EET I-II 16]
HGFA
  S/N: 14.5
  ELISA: 1.92

## GCHPDPWWCKQDSDCLARWCG [Her3-Fc EET I-II 37]
Her3-Fc
  S/N: 43.4
  ELISA: 3.17

## GCISKWFSCKQDSDCLAGCVCLLWQDCG (also: bicyclic or more (positions not given here)) [Her3-Fc EET I-II 67]
Her3-Fc
  S/N: 20.1
  ELISA: 1.54

## GCLASHPWWSVWCKQDSDCLAGCVCQEMGICG (also: bicyclic or more (positions not given here)) [R-spondin EETI-II 31]
R-spondin
  S/N: 11.4
  ELISA: 0.72

## GCMNWGTFCKQDSDCLAGCVCALFGVCG (also: bicyclic or more (positions not given here)) [Her3-Fc EET I-II 66]
Her3-Fc
  S/N: 27.8
  ELISA: 1.59

## GCPRILIRCKQDSDCLAGCVCSGPPPCG (also: bicyclic or more (positions not given here)) [Her3-Fc EET I-II 47]
Her3-Fc
  S/N: 22.4
  ELISA: 1.64

## GCPRILKRCKRDSDCLAGCVCRGNGFCG (also: bicyclic or more (positions not given here)) [EETI-mut]
trypsin
  phage binding to immobilized trypsin: significantly disrupted

## GCPRILMRCKQDSDCLAGCVCAGPPPCG (also: bicyclic or more (positions not given here)) [Her3-Fc EET I-II 42]
Her3-Fc
  S/N: 23.8
  ELISA: 1.52

## GCPRILMRCKQDSDCLAGCVCSGPPPCG (also: bicyclic or more (positions not given here)) [Her3-Fc EET I-II 7]
Her3-Fc
  S/N: 24.5
  ELISA: 1.60

## GCPRILMRCKQDSDCLSGCVCSGPPPCG (also: bicyclic or more (positions not given here)) [Her3-Fc EET I-II 24]
Her3-Fc
  S/N: 16.6
  ELISA: 1.61

## GCQLHYSQQGCKQYSULSGLVLWYTIHRLLRWRI [Her3-Fc EET I-II 4]
Her3-Fc
  S/N: 21.1
  ELISA: 1.45

## GCQSHYSHQGCKQDSDCLAGYCG [Her3-Fc EET I-II 11]
Her3-Fc
  S/N: 26.1
  ELISA: 1.65

## GCQWDWWMEEWWCKQDSDCLAGCVCGPNGFCG (also: bicyclic or more (positions not given here)) [HGFA EET I-II 14]
HGFA
  S/N: 15.2
  ELISA: 1.75

## GCQWIAHWWLWDCKQDSDCLAGCVCGPNGFCG (also: bicyclic or more (positions not given here)) [HGFA EET I-II 86]
HGFA
  S/N: 22.6
  ELISA: 1.92

## GCWSSEKGLACKQDSDCLAGCVCDQTGSCG (also: bicyclic or more (positions not given here)) [Her3-Fc EET I-II 52]
Her3-Fc
  S/N: 23.0
  ELISA: 1.65

## GCYWDSWFDEWVCKQDSDCLAGCVCGPNGFCG (also: bicyclic or more (positions not given here)) [HGFA EET I-II 59]
HGFA
  S/N: 13.4
  ELISA: 1.67

## GCYWKRQFKCKQDSYCLPGCVCGWEMSCG (disulfide (positions not given here)) [CD28-Fc EET I-II 16]
CD28-Fc; spot phage ELISA signal of phage-displayed DCP clone on CD28-Fc
  ELISA: 1.80
CD28-Fc; spot phage ELISA signal-to-noise on CD28-Fc
  S/N: 8.4

## GLPVCGETCVGGTCNTPGCTCSWPVCTRN (also: bicyclic or more (positions not given here)) [kalata B1]
trypsin
  phage binding to immobilized trypsin: did not exhibit any binding signal

## GPSHSQYCHCGGIGYVGGHYCSCTNYQDEWGFESRCLPGAS [HGFA CBD 9]
HGFA
  S/N: 25.0
  ELISA: 1.80

## GPTQSFWGWCGGIGYVGGRYCSGTTCQRPDAHWSQCLPGAS (disulfide 10-26, 21-36 (inferred)) [HtrA1_CBDamy86]
HtrA1 FL
  Kd: 158 µM
HtrA1
  S/N: 22.8

## GPTQSWQGRCGGIGYSGPTVCASGTTCQVLTPYWSECLPGAS (disulfide 10-27, 21-37 (inferred)) [Her3-Fc_CBD1]
Her3-Fc
  S/N: 20.2
Her3-Fc; listed as Her3-Fc CBD 3
  ELISA: 1.65

## SGSDGGVCPKILKKCRRDSDCPGACICRGNGYCG (also: bicyclic or more (positions not given here)) [MCoTI-II]
trypsin
  phage binding to immobilized trypsin: showed binding signals
